Source: patent US7767850B2, “S-[2-[(1-iminoethy)amino]ethyl]-2-methyl-L-cysteine maleate hydrochloride crystalline salt” (Pfizer Inc., priority 2003, dated 2010)

Legend:
[1] = Direct compression without excipients: tablet hardness and disintegration; type: physicochemical; conditions: for tablet hardness: 100-mg compacts, no excipients
Experimental: The powder was evaluated for direct compression without any excipients. Compacts of 100-mg in weight were manufactured using an 8/32 inch (6.35-mm) round concave tooling. Tablets were compressed at various compression forces and evaluated for strength, thickness and disintegration. […] Relatively strong small tablets ( 8/32 inch), as hard as 11-kP, are possible with compression force between 900 and 1000 kg. Tablet strength reaches an apparent maximum between 900 and 1000 kg compression force. Minor adhesion to the punch and die walls were observed during compression experiments. However, the sticking was considered to be a minor problem and could easily be resolved by using an appropriate lubricant. Tablet disintegration times were also evaluated for compacts of orderly packed agglomerates of S-[2-[(1-Iminoethyl)amino]ethyl]-2-methyl-L-cysteine maleate hydrochloride crystals. Three tablets were compressed with compression forces between 500 and 600, corresponding to 8 kP tablet hardness for this material.

[2] = Bulk and tapped powder density; type: physicochemical; conditions: orderly packed agglomerates of Example 20
From the text: (§1) Orderly packed agglomerates of S-[2-[(1-Iminoethyl)amino]ethyl]-2-methyl-L-cysteine maleate hydrochloride crystals made in Example 20 were studied to determine its powder characteristics that are relevant to the development of a pharmaceutical composition with S-[2-[(1-Iminoethyl)amino]ethyl]-2-methyl-L-cysteine maleate hydrochloride together with a pharmaceutically acceptable carrier. Before testing, the solids were passed through 80-mesh screen corresponding to 177 micrometer opening in order to fragment some very large loose aggregates of the orderly packed agglomerates. The properties tested included powder flow characteristics, powder particle size distribution, powder bulk and tapped density and powder compressibility and compaction.
Bulk powder density was evaluated as the mass of material within a 50-ml graduated cylinder.

[3] = type: physicochemical
From the text: Additionally, the presence of excess maleic acid dramatically increases the solubility.
1-Butanol was selected as the best solvent to explore the possibility of utilizing a high boiling solvent that can easily be exchanged with water from the upstream aqueous chromatography purification step. […] This process was again designed to be very similar to the DMF/acetonitrile process. Following is a description of the initial process run at the 1 L scale.

[4] = Powder flow, aperture flow tester; type: physicochemical
From the text: as §1, with “compaction. Powder flow was evaluated using an aperture flow tester, measured as the smallest opening at which the powder freely flows through. The powder flow test was repeatedly successful through a 6-mm aperture opening. A powder flow of 6-mm is considered good for formulation development of S-[2-[(1-Iminoethyl)amino]ethyl]-2-methyl-L-cysteine maleate hydrochloride crystals. Successful repetition of flow through a narrower 4-mm opening was, however, dependent on how the powder was introduced to the tester.” for “compaction.”

[5] = Particle size distribution by sieve analysis; type: physicochemical
From the text: as §1
Particle size distribution of the powder was measured using sieve analysis. The mean particle size distribution was calculated using the geometric mean method. […] Only 1.63% of material was considered as fines, less than 75-μm, with more than 90% within 105-250-μm. More than 75% of the material was within 105-150-μm. The tight range in the powder particle size distribution for orderly packed agglomerates is between 100 and 200-μm, which is highly desirable for the development of a pharmaceutical composition with S-[2-[(1-Iminoethyl)amino]ethyl]-2-methyl-L-cysteine maleate hydrochloride together with a pharmaceutically acceptable carrier.

[6] = Moisture sorption study by DVS moisture balance; type: physicochemical; conditions: 25° C., sample of Example 10
From the text: FIG. 4 is a plot of a moisture sorption study of the crystalline S-[2-[(1-Iminoethyl)amino]ethyl]-2-methyl-L-cysteine maleate hydrochloride. […] Between 70 and 9% R.H., another 58% moisture was taken up by the solids. It is presumed that at 90% R.H. the crystal structure was destroyed to produce highly hygroscopic amorphous solids. During the de-sorption cycle (from 90 to 30% R.H.), these solids transformed into a mixture of form II of the crystalline S-[2-[(1-Iminoethyl)amino]ethyl]-2-methyl-L-cysteine maleate and amorphous zwitterion with excess hydrogen chloride. Subsequent de-sorption and re-sorption behavior was very similar to form II of the crystalline S-[2-[(1-Iminoethyl)amino]ethyl]-2-methyl-L-cysteine maleate. Powder x-ray analysis on the solids at the end of the experiment confirmed the presence of both form II the crystalline S-[2-[(1-Iminoethyl)amino]ethyl]-2-methyl-L-cysteine maleate and amorphous solids.

physchem = type: physicochemical
From the text: S-[2-[(1-Iminoethyl)amino]ethyl]-2-methyl-L-cysteine maleate hydrochloride crystals are birefringent with positive elongation when analyzed by polarized light microscopy.
Examples 7 and 8 only differ in the nature of agitation afforded to the system. […] The bead was agitated with a magnetic plate. […] Both the examples used 2.0 molar equivalents of maleic acid and 0.5 molar equivalent of HCl for each mole of S-[2-[(1-Iminoethyl)amino]ethyl]-2-methyl-L-cysteine. […] In Example 9, the water content of the system was 2.3% before the addition of acetonitrile, while the ratio of acetonitrile to DMF was 1.98 on weight/weight basis.

[7] = orderly packed agglomerates of Example 20

| SMILES | tablet hardness ([1]; 8/32 inch, compression force between 900 and 1000 kg) | tablet hardness ([1]; compression forces between 500 and 600) | tablet disintegration time ([1]; three tablets, compression forces between 500 and 600, 8 kP hardness) | bulk powder density [2] | tapped density [2] | solubility in 1-butanol [3] | solubility in methanol [3] | compressibility index [4, 7] | powder flow, smallest aperture opening at which the powder freely flows through ([4]; orderly packed agglomerates of Example 20, passed through 80-mesh screen) | fraction of fines, less than 75-μm [5, 7] | fraction of material within 105-150-μm [5, 7] | fraction of material within 105-250-μm [5, 7] | mean particle size ([5]; orderly packed agglomerates of Example 20, geometric mean method) | moisture uptake ([6]; between 0 and 70% relative humidity) | further moisture taken up by the solids ([6]; between 70 and 9% R.H. as printed) | solubility in water (in words) (physchem) | solubility (physchem; water) |
| --- | --- | --- | --- | --- | --- | --- | --- | --- | --- | --- | --- | --- | --- | --- | --- | --- | --- |
| CC(=N)NCCSC[C@](C)(N)C(=O)O.Cl.O=C(O)/C=C\C(=O)O [S-[2-[(1-Iminoethyl)amino]ethyl]-2-methyl-L-cysteine maleate hydrochloride] | ≤ 11 kP | 8 kP | less than 2 minutes | 0.41 g/mL | 0.50 g/mL | 0.05 wt % | 6.2 wt % | 17.8% | 6 mm | 1.63% | More than 75% | more than 90% | 134 micrometers | approximately 1.5% | 58% | highly soluble in water | > 150 mg/mL |
| CC(=N)NCCSC[C@](C)(N)C(=O)O [S-[2-[(1-Iminoethyl)amino]ethyl]-2-methyl-L-cysteine] |  |  |  |  |  |  |  |  |  |  |  |  |  |  |  | highly soluble in water |  |
